Source: PubChem BioAssay (NCI)
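Cells were grown in 96-well plates and exposed to each compound for 48 hours at five concentrations; endpoints were interpolated linearly between bracketing concentrations, or set to the highest concentration if not reached. TGI marks complete inhibition of growth.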

How the values were obtained:
Test in all cases: DTP human tumour cell line panel, 48 h
HS 578T breast = tested on: HS 578T breast
SK-OV-3 ovarian = tested on: SK-OV-3 ovarian
SK-MEL-5 melanoma = tested on: SK-MEL-5 melanoma
SF-295 CNS = tested on: SF-295 CNS
K-562 leukemia = tested on: K-562 leukemia
HT29 colon = tested on: HT29 colon
OVCAR-5 ovarian = tested on: OVCAR-5 ovarian
TK-10 renal = tested on: TK-10 renal
M14 melanoma = tested on: M14 melanoma
LOX IMVI melanoma = tested on: LOX IMVI melanoma
PC-3 prostate = tested on: PC-3 prostate
SNB-19 CNS = tested on: SNB-19 CNS
HCT-15 colon = tested on: HCT-15 colon
HOP-62 NSCLC = tested on: HOP-62 NSCLC
786-0 renal = tested on: 786-0 renal
KM12 colon = tested on: KM12 colon
MOLT-4 leukemia = tested on: MOLT-4 leukemia
DU-145 prostate = tested on: DU-145 prostate
HCC-2998 colon = tested on: HCC-2998 colon

Row | SMILES | TGI (HS 578T breast) | TGI (SK-OV-3 ovarian) | TGI (SK-MEL-5 melanoma) | TGI (SF-295 CNS) | TGI (K-562 leukemia) | TGI (HT29 colon) | TGI (OVCAR-5 ovarian) | TGI (TK-10 renal) | TGI (M14 melanoma) | TGI (LOX IMVI melanoma) | TGI (PC-3 prostate) | TGI (SNB-19 CNS) | TGI (HCT-15 colon) | TGI (HOP-62 NSCLC) | TGI (786-0 renal) | TGI (KM12 colon) | TGI (MOLT-4 leukemia) | TGI (DU-145 prostate) | TGI (HCC-2998 colon)
1 | CCOC(=O)NNC(=O)NCCCCNC(=O)NNC(=O)OCC | > 100 µM | > 100 µM | > 100 µM | > 100 µM | > 100 µM | > 100 µM | > 100 µM | > 100 µM | > 100 µM | > 100 µM | > 100 µM | > 100 µM | > 100 µM | > 100 µM | > 100 µM | > 100 µM | > 100 µM | > 100 µM | –
2 | COC(=O)[C@@]1(C)/C(=N/NS(=O)(=O)c2ccc(C)cc2)CCC[C@@H]1C | – | > 100 µM | > 100 µM | > 100 µM | > 100 µM | > 100 µM | > 100 µM | > 100 µM | > 100 µM | 27.5 µM | – | > 100 µM | 31.9 µM | > 100 µM | > 100 µM | > 100 µM | > 100 µM | – | > 100 µM
3 | CC1=C(CO)C2=C(C)C3(CC3)[C@@](C)(O)C(=O)C2=C1 | 1.51 µM | 0.926 µM | 0.374 µM | – | > 100 µM | 1.12 µM | 0.553 µM | 1.13 µM | 0.698 µM | 3.14 µM | 1.31 µM | 10.6 µM | 5.17 µM | 0.4 µM | 0.474 µM | 2.81 µM | – | – | 0.329 µM
4 | Nc1ccn([C@H]2CO[C@@H](CO)[C@@H]2O)c(=O)n1 | – | > 100 µM | > 100 µM | > 100 µM | > 100 µM | > 100 µM | > 100 µM | > 100 µM | – | > 100 µM | > 100 µM | – | > 100 µM | > 100 µM | > 100 µM | > 100 µM | > 100 µM | > 100 µM | > 100 µM
5 | CCOC(=O)Cc1ccc(Nc2nc3ccccc3nc2C(=O)OCC)cc1 | 88.9 µM | > 100 µM | > 100 µM | > 100 µM | – | > 100 µM | > 100 µM | > 100 µM | > 100 µM | > 100 µM | > 100 µM | 41 µM | > 100 µM | > 100 µM | > 100 µM | > 100 µM | > 100 µM | > 100 µM | –
6 | CC(C)(C)OC/C=C(/CO)[C@@H]1C=C[C@H](O)C1 | – | > 100 µM | – | > 100 µM | > 100 µM | > 100 µM | > 100 µM | – | > 100 µM | – | > 100 µM | > 100 µM | > 100 µM | > 100 µM | > 100 µM | > 100 µM | > 100 µM | – | > 100 µM
7 | Cc1cc(C(F)(F)F)cc(-n2nc(NS(=O)(=O)c3cc(C)c(Cl)cc3S)nc2N)n1 | > 100 µM | > 100 µM | > 100 µM | > 100 µM | > 100 µM | > 100 µM | – | > 100 µM | > 100 µM | > 100 µM | > 100 µM | > 100 µM | > 100 µM | > 100 µM | > 100 µM | > 100 µM | 69.5 µM | – | > 100 µM
8 | Cc1ccc(Cl)c2c(=O)c3ccc(N)cc3sc12 | 33.6 µM | – | 37.7 µM | 31.8 µM | 48.6 µM | 38.5 µM | > 100 µM | > 100 µM | > 100 µM | – | 76.7 µM | > 100 µM | 54.9 µM | 52.8 µM | > 100 µM | 33.4 µM | 50 µM | > 100 µM | –
9 | COc1ccc(-c2cc3ccccc3oc2=O)cc1OC | > 100 µM | 71 µM | > 100 µM | > 100 µM | > 100 µM | > 100 µM | > 100 µM | > 100 µM | > 100 µM | > 100 µM | – | > 100 µM | > 100 µM | > 100 µM | > 100 µM | > 100 µM | > 100 µM | > 100 µM | –
10 | CC1(C)OC[C@@H]([C@H](O)C2C=CC(=O)S2)O1 (some centres undefined) | – | > 100 µM | 45.7 µM | > 100 µM | > 100 µM | 55.5 µM | > 100 µM | > 100 µM | > 100 µM | 31.7 µM | > 100 µM | > 100 µM | 35.5 µM | > 100 µM | 59.3 µM | 30.1 µM | 75.2 µM | 56.6 µM | 33.5 µM
11 | O=C(CC(C(=O)c1ccsc1)c1ccccc1)c1ccccc1 (centres undefined) | > 100 µM | > 100 µM | > 100 µM | > 100 µM | > 100 µM | > 100 µM | > 100 µM | > 100 µM | > 100 µM | > 100 µM | – | – | > 100 µM | > 100 µM | > 100 µM | > 100 µM | > 100 µM | > 100 µM | > 100 µM
12 | COc1ccc(N=NC(=O)NC(CC(C)C)C(=O)NC(C)C(=O)O)cc1 (centres undefined) | > 100 µM | – | > 100 µM | > 100 µM | > 38.4 µM | > 100 µM | > 100 µM | > 100 µM | > 100 µM | – | > 100 µM | > 100 µM | > 100 µM | > 100 µM | > 100 µM | > 100 µM | > 100 µM | > 100 µM | > 100 µM
13 | COc1ccc(C(C#N)NNC(=O)Cc2ccccc2)cc1OC (centres undefined) | – | > 100 µM | > 100 µM | > 100 µM | > 100 µM | > 100 µM | > 100 µM | > 100 µM | > 100 µM | > 100 µM | – | – | > 100 µM | > 100 µM | > 100 µM | > 100 µM | > 100 µM | – | –
14 | C=CCN1CCC(O)(c2cc(C(=O)OCC)[nH]c2-c2cc(C)no2)C1 (centres undefined) | – | > 100 µM | > 100 µM | > 100 µM | > 100 µM | > 100 µM | > 100 µM | > 100 µM | > 100 µM | > 100 µM | > 100 µM | > 100 µM | > 100 µM | – | > 100 µM | > 100 µM | > 100 µM | > 100 µM | –
